Experiments:
Assay type in all cases: cell-based
FKBP51 [1] = experiment: Immunoblot analysis of dexamethasone induced FKBP51 levels in H4 human neuroglioma cell line; conditions: 10 μM compound, dexamethasone containing media, 24 h, immunoblot (FIG. 1)
Description: FIGS. 1A-1B show qPCR (FIG. 1A) and immunoblot analysis (FIG. 1B) of FKBP51 levels in cultures of H4 human neuroglioma cell line treated with methyl acetate vehicle (MeOAc) or ethanol vehicle (ETOH) or 10 μM 15-deoxy-12,14-prostaglandin J2 (J2) or 10 μM 9-nitro oleic acid (9N), or 10 μM 10-nitro oleic acid (ION) in control (dimethyl sulfoxide; DMSO) or dexamethasone (Dex) containing media for 6 h and 24 h. Cultures incubated with treatments for 6 h were used for RNA analysis whereas cultures incubated with treatments for 24 h were used for protein analysis. Bars represent mean±SEM; n=3 independent experiments.

FKBP51 [2] = experiment: Immunoblot analysis of dexamethasone induced FKBP51 levels in HT-22 mouse hippocampal neuronal cell line; conditions: 20 μM compound, 500 nM dexamethasone, immunoblot (FIG. 2)
[3] = test system: glucocorticoid receptor response element (GRE); experiment: GRE reporter luciferase assay in dexamethasone treated HeLa cells; conditions: dexamethasone treated HeLa cells transfected with empty vector or FKBP51 vector (FIG. 3)

Structure (SMILES) | dexamethasone induced FKBP51 protein levels (FKBP51 [1]) | dexamethasone induced FKBP51 protein levels (FKBP51 [2]) | glucocorticoid receptor response (GRE reporter luciferase) [3]
CCCCCCCC/C=C(\CCCCCCCC(=O)O)[N+](=O)[O-] [9-nitro oleic acid, 9-nitro-9E-octadecenoic acid] | inhibit dexamethasone induced FKBP51 protein levels | inhibit dexamethasone induced FKBP51 protein levels | alter glucocorticoid receptor response
CCCCCCCC/C(=C\CCCCCCCC(=O)O)[N+](=O)[O-] [10-nitro oleic acid, 10-nitro-9E-octadecenoic acid] | inhibit dexamethasone induced FKBP51 protein levels | inhibit dexamethasone induced FKBP51 protein levels | alter glucocorticoid receptor response
CCCCC/C=C/C=C1/C(=O)C=C[C@@H]1C/C=C\CCCC(=O)O [15-deoxy-12,14-prostaglandin J2, 15-deoxy-Δ12,14-prostaglandin J2] | inhibit dexamethasone induced FKBP51 protein levels | inhibit dexamethasone induced FKBP51 protein levels | alter glucocorticoid receptor response
